{"source": "patent US9096565B2", "about": "“Inhibitors of histone deacetylase” (MethylGene Inc., priority 2007, dated 2015)"}
{"biological_target": "one or more of HDAC-4, HDAC-5, HDAC-6, HDAC-7, HDAC-8, HDAC-9, HDAC-10 and HDAC-11", "test": "Inhibition of histone deacetylase enzymatic activity (summary statement over isoforms)", "format": "biochemical", "settings": "Table 3, selected examples; HDAC isoform not given", "description": "The following protocol is used to assay the compounds of the invention.\nThe mixture is pre-incubated for 5 minutes at room temperature. The reaction is started by bringing the temperature to 37° C. and adding 15 μL substrate. Total reaction volume is 50 μL.\nA 30 mM stock of Boc-Lys(trifluoroacetyl)-AMC substrate is prepared in DMSO. […] Reaction is started by adding 18 μL Boc-Lys(trifluoroacetyl)-AMC substrate and incubating at 37° C. for 20-30 minutes. The reaction is stopped by adding 50 μL trypsin (1 mg/mL) and a known HDAC inhibitor.", "units": {"IC50": "µM"}}
{"smiles": "O=C(NO)C(c1ccccc1)c1ccc(OCCc2ccccc2)cc1", "note": "(stereo not shown) [Compound 2-12, N-hydroxy-2-(4-phenethoxyphenyl)-2-phenylacetamide]", "IC50": "< 1"}
{"smiles": "O=C(NO)C(c1ccccc1)c1ccc(OCc2ccc(F)cc2)cc1", "note": "(stereo not shown) [Compound 2-13]", "IC50": "< 1"}
{"smiles": "COc1cccc(COc2ccc(C(C(=O)NO)c3ccccc3)cc2)c1", "note": "(stereo not shown) [Compound 2-14, N-hydroxy-2-(4-(3-methoxybenzyloxy)phenyl)-2-phenylacetamide]", "IC50": "< 1"}
{"smiles": "Cc1ccc(OC(C(=O)NO)c2ccccc2)cc1", "note": "(stereo not shown) [Compound 2-15, N-hydroxy-2-phenyl-2-(p-tolyloxy)acetamide]", "IC50": "1 to 15"}
{"smiles": "O=C(NO)C(Oc1ccc2c(c1)CCC2)c1ccccc1", "note": "(stereo not shown) [Compound 2-16, 2-(2,3-dihydro-1H-inden-5-yloxy)-N-hydroxy-2-phenylacetamide]", "IC50": "1 to 15"}
{"smiles": "CC(C)c1ccc(SC(C(=O)NO)c2ccccc2)cc1", "note": "(stereo not shown) [Compound 2-21, N-hydroxy-2-(4-isopropylphenylthio)-2-phenylacetamide]", "IC50": "1 to 15"}
{"smiles": "CCCC(=O)N1CCCN(C(C(=O)NO)c2ccccc2)CC1", "note": "(stereo not shown) [Compound 2-22, 2-(4-butyryl-1,4-diazepan-1-yl)-N-hydroxy-2-phenylacetamide]", "IC50": "1 to 15"}
{"smiles": "CCCC(=O)N1CCN(C(C(=O)NO)c2ccccc2)CC1", "note": "(stereo not shown) [Compound 2-23, 2-(4-butyrylpiperazin-1-yl)-N-hydroxy-2-phenylacetamide]", "IC50": "1 to 15"}
{"smiles": "CC(C)(C)C(=O)N1CCCN(C(C(=O)NO)c2ccccc2)CC1", "note": "(stereo not shown) [Compound 2-24, N-hydroxy-2-phenyl-2-(4-pivaloyl-1,4-diazepan-1-yl)acetamide]", "IC50": "1 to 15"}
{"smiles": "O=C(NO)C(c1ccccc1)N1CCN(C(=O)c2ccco2)CC1", "note": "(stereo not shown) [Compound 2-27, 2-(4-(furan-2-carbonyl)piperazin-1-yl)-N-hydroxy-2-phenylacetamide]", "IC50": "1 to 15"}
{"smiles": "O=C(NO)C(c1ccccc1)N1CCN(C(=O)Cc2ccccc2)CC1", "note": "(stereo not shown) [Compound 2-28, N-hydroxy-2-phenyl-2-(4-(2-phenylacetyl)piperazin-1-yl)acetamide]", "IC50": "1 to 15"}
{"smiles": "Cc1cccc(C(=O)N2CCCN(C(C(=O)NO)c3ccccc3)CC2)c1", "note": "(stereo not shown) [Compound 2-29, N-hydroxy-2-(4-(3-methylbenzoyl)-1,4-diazepan-1-yl)-2-phenylacetamide]", "IC50": "1 to 15"}
{"smiles": "CC(C)NC(=O)N1CCCN(C(C(=O)NO)c2ccccc2)CC1", "note": "(stereo not shown) [Compound 2-31, 4-(2-(hydroxyamino)-2-oxo-1-phenylethyl)-N-isopropyl-1,4-diazepane-1-carboxamide]", "IC50": "1 to 15"}
{"smiles": "O=C(NO)C(c1ccccc1)N1CCN(C(=O)Nc2cccnc2)CC1", "note": "(stereo not shown) [Compound 2-34, 4-(2-(hydroxyamino)-2-oxo-1-phenylethyl)-N-(pyridin-3-yl)piperazine-1-carboxamide]", "IC50": "1 to 15"}
{"smiles": "Cc1ccccc1NC(=O)N1CCN(C(C(=O)NO)c2ccccc2)CC1", "note": "(stereo not shown) [Compound 2-36, 4-(2-(hydroxyamino)-2-oxo-1-phenylethyl)-N-o-tolylpiperazine-1-carboxamide]", "IC50": "1 to 15"}
{"smiles": "COc1cccc(NC(=O)N2CCCN(C(C(=O)NO)c3ccccc3)CC2)c1", "note": "(stereo not shown) [Compound 2-37, 4-(2-(hydroxyamino)-2-oxo-1-phenylethyl)-N-(3-methoxyphenyl)-1,4-diazepane-1-carboxamide]", "IC50": "1 to 15"}
{"smiles": "Cn1cnc(S(=O)(=O)N2CCN(C(C(=O)NO)c3ccccc3)CC2)c1", "note": "(stereo not shown) [Compound 2-38, N-hydroxy-2-(4-(1-methyl-1H-imidazol-4-ylsulfonyl)piperazin-1-yl)-2-phenylacetamide]", "IC50": "< 1"}
{"smiles": "Cn1cnc(S(=O)(=O)N2CCCN(C(C(=O)NO)c3ccccc3)CC2)c1", "note": "(stereo not shown) [Compound 2-39, N-hydroxy-2-(4-(1-methyl-1H-imidazol-4-ylsulfonyl)-1,4-diazepan-1-yl)-2-phenylacetamide]", "IC50": "1 to 15"}
{"smiles": "O=C(NO)C(c1ccccc1)N1CCN(Cc2cccnc2)CC1", "note": "(stereo not shown) [Compound 2-40, N-hydroxy-2-phenyl-2-(4-(pyridin-3-ylmethyl)piperazin-1-yl)acetamide]", "IC50": "1 to 15"}
{"smiles": "O=C(NO)C(c1ccccc1)N1CCC2(CC1)OCCO2", "note": "(stereo not shown) [Compound 2-41, N-hydroxy-2-phenyl-2-(1,4-dioxa-8-azaspiro[4.5]decan-8-yl)acetamide]", "IC50": "1 to 15"}
{"smiles": "O=C(NO)C(c1ccccc1)N1CCC(N2CCOCC2)CC1", "note": "(stereo not shown) [Compound 2-42, N-hydroxy-2-(4-morpholinopiperidin-1-yl)-2-phenylacetamide]", "IC50": "1 to 15"}
{"smiles": "O=C(NO)C(c1ccccc1)N1CCC(c2nc(-c3cccnc3)no2)CC1", "note": "(stereo not shown) [Compound 2-43, N-hydroxy-2-phenyl-2-(4-(3-(pyridin-3-yl)-1,2,4-oxadiazol-5-yl)piperidin-1-yl)acetamide]", "IC50": "< 1"}
{"smiles": "O=C(NO)C(c1ccccc1)N1CCC(c2nc(-c3ccc4c(c3)OCO4)no2)CC1", "note": "(stereo not shown) [Compound 2-44, 2-(4-(3-(benzo[d][1,3]dioxol-5-yl)-1,2,4-oxadiazol-5-yl)piperidin-1-yl)-N-hydroxy-2-phenylacetamide]", "IC50": "< 1"}
{"smiles": "O=C(NO)C(Sc1ccncc1)c1ccccc1", "note": "(stereo not shown) [Compound 2-45, N-hydroxy-2-phenyl-2-(pyridin-4-ylthio)acetamide]", "IC50": "1 to 15"}
{"smiles": "Cc1occc1SC(C(=O)NO)c1ccccc1", "note": "(stereo not shown) [Compound 2-46, N-hydroxy-2-(2-methylfuran-3-ylthio)-2-phenylacetamide]", "IC50": "1 to 15"}
{"smiles": "O=C(NO)C(Sc1ccc(C(F)(F)F)cn1)c1ccccc1", "note": "(stereo not shown) [Compound 2-47, N-hydroxy-2-phenyl-2-(5-(trifluoromethyl)pyridin-2-ylthio)acetamide]", "IC50": "1 to 15"}
{"smiles": "O=C(NO)C(Sc1nccc(-c2cccs2)n1)c1ccccc1", "note": "(stereo not shown) [Compound 2-48, N-hydroxy-2-phenyl-2-(4-(thiophen-2-yl)pyrimidin-2-ylthio)acetamide]", "IC50": "1 to 15"}
{"smiles": "O=C(NO)C(Sc1ccnc2cc(C(F)(F)F)ccc12)c1ccccc1", "note": "(stereo not shown) [Compound 2-49, N-hydroxy-2-phenyl-2-(7-(trifluoromethyl)quinolin-4-ylthio)acetamide]", "IC50": "< 1"}
{"smiles": "O=C(NO)C(c1ccccc1)c1cccc(NCc2ccc(F)cc2)c1", "note": "(stereo not shown) [Compound 2-50, 2-(3-(4-fluorobenzylamino)phenyl)-N-hydroxy-2-phenylacetamide]", "IC50": "< 1"}
{"smiles": "O=C(NO)C(c1ccccc1)c1ccc(NCc2ccc(F)cc2)cc1", "note": "(stereo not shown) [Compound 2-51, 2-(4-(4-fluorobenzylamino)phenyl)-N-hydroxy-2-phenylacetamide]", "IC50": "< 1"}
{"smiles": "CC(=O)Nc1cccc(C(C(=O)NO)c2ccccc2)c1", "note": "(stereo not shown) [Compound 2-52, 2-(3-acetamidophenyl)-N-hydroxy-2-phenylacetamide]", "IC50": "1 to 15"}
{"smiles": "CC(C)CC(=O)Nc1ccc(C(C(=O)NO)c2ccccc2)cc1", "note": "(stereo not shown) [Compound 2-53, N-(4-(2-(hydroxyamino)-2-oxo-1-phenylethyl)phenyl)-3-methylbutanamide]", "IC50": "< 1"}
{"smiles": "CC(C)CC(=O)Nc1cccc(C(C(=O)NO)c2ccccc2)c1", "note": "(stereo not shown) [Compound 2-54, N-(3-(2-(hydroxyamino)-2-oxo-1-phenylethyl)phenyl)-3-methylbutanamide]", "IC50": "1 to 15"}
{"smiles": "O=C(Nc1ccc(C(C(=O)NO)c2ccccc2)cc1)c1ccccc1", "note": "(stereo not shown) [Compound 2-55, N-(4-(2-(hydroxyamino)-2-oxo-1-phenylethyl)phenyl)benzamide]", "IC50": "< 1"}
{"smiles": "O=C(Nc1cccc(C(C(=O)NO)c2ccccc2)c1)c1ccccc1", "note": "(stereo not shown) [Compound 2-56, N-(3-(2-(hydroxyamino)-2-oxo-1-phenylethyl)phenyl)benzamide]", "IC50": "1 to 15"}
{"smiles": "O=C(Nc1ccc(C(C(=O)NO)c2ccccc2)cc1)C1CCCCC1", "note": "(stereo not shown) [Compound 2-57, N-(4-(2-(hydroxyamino)-2-oxo-1-phenylethyl)phenyl)cyclohexanecarboxamide]", "IC50": "< 1"}
{"smiles": "O=C(Nc1cccc(C(C(=O)NO)c2ccccc2)c1)C1CCCCC1", "note": "(stereo not shown) [Compound 2-58, N-(3-(2-(hydroxyamino)-2-oxo-1-phenylethyl)phenyl)cyclohexanecarboxamide]", "IC50": "1 to 15"}
{"smiles": "O=C(Cc1ccccc1)Nc1ccc(C(C(=O)NO)c2ccccc2)cc1", "note": "(stereo not shown) [Compound 2-59, N-hydroxy-2-phenyl-2-(4-(2-phenylacetamido)phenyl)acetamide]", "IC50": "< 1"}
{"smiles": "O=C(Cc1ccccc1)Nc1cccc(C(C(=O)NO)c2ccccc2)c1", "note": "(stereo not shown) [Compound 2-60, N-hydroxy-2-phenyl-2-(3-(2-phenylacetamido)phenyl)acetamide]", "IC50": "< 1"}
{"smiles": "O=C(Nc1ccc(C(C(=O)NO)c2ccccc2)cc1)c1ccc(F)cc1", "note": "(stereo not shown) [Compound 2-61, 4-fluoro-N-(4-(2-(hydroxyamino)-2-oxo-1-phenylethyl)phenyl)benzamide]", "IC50": "< 1"}
{"smiles": "O=C(Nc1cccc(C(C(=O)NO)c2ccccc2)c1)c1ccc(F)cc1", "note": "(stereo not shown) [Compound 2-62, 4-fluoro-N-(3-(2-(hydroxyamino)-2-oxo-1-phenylethyl)phenyl)benzamide]", "IC50": "< 1"}
{"smiles": "Cc1cc(C(=O)Nc2ccc(C(C(=O)NO)c3ccccc3)cc2)c(C)o1", "note": "(stereo not shown) [Compound 2-63, N-(4-(2-(hydroxyamino)-2-oxo-1-phenylethyl)phenyl)-2,5-dimethylfuran-3-carboxamide]", "IC50": "< 1"}
{"smiles": "Cc1cc(C(=O)Nc2cccc(C(C(=O)NO)c3ccccc3)c2)c(C)o1", "note": "(stereo not shown) [Compound 2-64, N-(3-(2-(hydroxyamino)-2-oxo-1-phenylethyl)phenyl)-2,5-dimethylfuran-3-carboxamide]", "IC50": "1 to 15"}
{"smiles": "Cc1ccsc1C(=O)Nc1ccc(C(C(=O)NO)c2ccccc2)cc1", "note": "(stereo not shown) [Compound 2-65, N-(4-(2-(hydroxyamino)-2-oxo-1-phenylethyl)phenyl)-3-methylthiophene-2-carboxamide]", "IC50": "< 1"}
{"smiles": "Cc1ccsc1C(=O)Nc1cccc(C(C(=O)NO)c2ccccc2)c1", "note": "(stereo not shown) [Compound 2-66, N-(3-(2-(hydroxyamino)-2-oxo-1-phenylethyl)phenyl)-3-methylthiophene-2-carboxamide]", "IC50": "1 to 15"}
{"smiles": "O=C(COc1ccccc1)Nc1ccc(C(C(=O)NO)c2ccccc2)cc1", "note": "(stereo not shown) [Compound 2-67, N-hydroxy-2-(4-(2-phenoxyacetamido)phenyl)-2-phenylacetamide]", "IC50": "< 1"}
